The values below come from patent US10098938B2, “Peptides and combination of peptides for use in immunotherapy against various cancers” (immatics biotechnologies GmbH, priority 2015, dated 2018).

One assay has as its system CD8+ T cells. As to the kind of experiment: In vitro immunogenicity: T-cell priming with aAPCs loaded with peptide/MHC and anti-CD28, pMHC multimer readout. The settings on record: in vitro immunogenicity of HLA class I peptides; for Wells positive [%]: pMHC multimer readout after T-cell priming; for Wells: CD8+ T cells of healthy donors, three stimulation cycles, multimer staining. The assay is classed as cell-based, human. An excerpt:
In order to obtain information regarding the immunogenicity of the TUMAPs of the present invention, the inventors performed investigations using an in vitro T-cell priming assay based on repeated stimulations of CD8+ T cells with artificial antigen presenting cells (aAPCs) loaded with peptide/MHC complexes and anti-CD28 antibody.
In order to perform in vitro stimulations by artificial antigen presenting cells loaded with peptide-MHC complex (pMHC) and anti-CD28 antibody, the inventors first isolated CD8+ T cells from fresh HLA-A*02 leukapheresis products via positive selection using CD8 microbeads (Miltenyi Biotec, Bergisch-Gladbach, Germany) of healthy donors obtained from the University clinics Mannheim, Germany, after informed consent.
PBMCs and isolated CD8+ lymphocytes were incubated in T-cell medium (TCM) until use consisting of RPMI-Glutamax (Invitrogen, Karlsruhe, Germany) supplemented with 10% heat inactivated human AB serum (PAN-Biotech, Aidenbach, Germany), 100 U/ml Penicillin/100 μg/ml Streptomycin (Cambrex, Cologne, Germany), 1 mM sodium pyruvate (CC Pro, Oberdorla, Germany), 20 μg/ml Gentamycin (Cambrex). 2.5 ng/ml IL7 (PromoCell, Heidelberg, Germany) and 10 U/ml IL-2 (Novartis Pharma, Nürnberg, Germany) were also added to the TCM at this step.
Generation of pMHC/anti-CD28 coated beads, T-cell stimulations and readout was performed in a highly defined in vitro system using four different pMHC molecules per stimulation condition and 8 different pMHC molecules per readout condition.
The purified co-stimulatory mouse IgG2a anti human CD28 Ab 9.3 (Jung et al., 1987) was chemically biotinylated using Sulfo-N-hydroxysuccinimidobiotin as recommended by the manufacturer (Perbio, Bonn, Germany). Beads used were 5.6 μm diameter streptavidin coated polystyrene particles (Bangs Laboratories, Illinois, USA).
pMHC used for positive and negative control stimulations were A*0201/MLA-001 (peptide […] (SEQ ID NO. 303) from modified Melan-A/MART-1) and A*0201/DDX5-001 ([…] from DDX5, SEQ ID NO. 304), respectively.
800.000 beads/200 μl were coated in 96-well plates in the presence of 4×12.5 ng different biotin-pMHC, washed and 600 ng biotin anti-CD28 were added subsequently in a volume of 200 μl. Stimulations were initiated in 96-well plates by co-incubating […] CD8+ T cells with 2×10^5 washed coated beads in 200 μl TCM supplemented with 5 ng/ml IL-12 (PromoCell) for 3 days at 37° C. Half of the medium was then exchanged by fresh TCM supplemented with 80 U/ml IL-2 and incubating was continued for 4 days at 37° C. This stimulation cycle was performed for a total of three times. For the pMHC multimer readout using 8 different pMHC molecules per condition, a two-dimensional combinatorial coding approach was used as previously described (Andersen et al., 2012) with minor modifications encompassing coupling to 5 different fluorochromes. Finally, multimeric analyses were performed by staining the cells with Live/dead near IR dye (Invitrogen, Karlsruhe, Germany), CD8-FITC antibody clone SK1 (BD, Heidelberg, Germany) and fluorescent pMHC multimers. For analysis, a BD LSRII SORP cytometer equipped with appropriate lasers and filters was used. Peptide specific cells were calculated as percentage of total CD8+ cells. Evaluation of multimeric analysis was done using the FlowJo software (Tree Star, Oregon, USA). In vitro priming of specific multimer+ CD8+ lymphocytes was detected by comparing to negative control stimulations.

The target of a further assay is HLA-A*02 (Homo sapiens, UniProt P04439, D140Y/D185E/D98H/E176V/E277Q/G131W/G231S/I119V/I121R/I166T/I218V/L300P/N151K/N90K/P208A/P217A/Q86G/Q94H/R138H/R169H). As to the kind of experiment: MHC binding assay, UV-ligand exchange with β2m ELISA, HLA-A*02. The settings on record: binding to HLA-A*02 ranged by peptide exchange yield. From the text:
(§1) Candidate peptides for T cell based therapies according to the present invention were further tested for their MHC binding capacity (affinity). The individual peptide-MHC complexes were produced by UV-ligand exchange, where a UV-sensitive peptide is cleaved upon UV-irradiation, and exchanged with the peptide of interest as analyzed. Only peptide candidates that can effectively bind and stabilize the peptide-receptive MHC molecules prevent dissociation of the MHC complexes. To determine the yield of the exchange reaction, an ELISA was performed based on the detection of the light chain (β2m) of stabilized MHC complexes. The assay was performed as generally described in Rodenko et al. (Rodenko et al., 2006).
(§2) 96 well MAXISorp plates (NUNC) were coated over night with 2 ug/ml streptavidin in PBS at room temperature, washed 4× and blocked for 1 h at 37° C. in 2% BSA containing blocking buffer. Refolded HLA-A*02:01/MLA-001 monomers served as standards, covering the range of 15-500 ng/ml. Peptide-MHC monomers of the UV-exchange reaction were diluted 100 fold in blocking buffer. Samples were incubated for 1 h at 37° C., washed four times, incubated with 2 ug/ml HRP conjugated anti-β2m for 1 h at 37° C., washed again and detected with TMB solution that is stopped with […]. Absorption was measured at 450 nm. Candidate peptides that show a high exchange yield (preferably higher than 50%, most preferred higher than 75%) are generally preferred for a generation and production of antibodies or fragments thereof, and/or T cell receptors or fragments thereof, as they show sufficient avidity to the MHC molecules and prevent dissociation of the MHC complexes.
In general terms: In an ELISA, binding on a coated surface is turned into a signal by an enzyme label.

The test system of the next assay is HLA-A*24. Briefly: MHC binding assay, UV-ligand exchange with β2m ELISA, HLA-A*24. More on the design: species or system human. The note with it: binding to HLA-A*24 ranged by peptide exchange yield.
Excerpt: as §1, §2

Take “35 (FLLPFSTVYL; listed as Homo sapiens) [compound 35]”: the “Wells positive [%]” value in the assay with CD8+ T cells is reported as “+ (<20% = +)”.

Regarding “229 (AILAHLNTV; listed as Homo sapiens) [compound 229]”, the Peptide exchange entry in the assay with HLA-A*02 was “++++ (> = 75% = ++++)”.

Regarding “196 (LYIDRPLPYL; listed as Homo sapiens) [compound 196]”, the “Wells positive [%]” value in the assay on CD8+ T cells is given as “++++ (> = 70% = ++++)”.

Regarding “120 (VTPVTVSAV; listed as Homo sapiens) [compound 120]”, the Peptide exchange entry in the assay with HLA-A*02 is listed as “+ (<20% = +)”.

On to “82 (FIFDEAEKL; listed as Homo sapiens) [compound 82]”, for which, in the assay with HLA-A*02, the Peptide exchange entry is on record as “+ (<20% = +)”.

For “218 (YYKSTSSAF; listed as Homo sapiens) [compound 218]”, the “Wells positive [%]” value in the assay on CD8+ T cells is listed as “+ (<20% = +)”.

In the case of “126 (QMFQYFITV; listed as Homo sapiens) [compound 126]”, in the assay with HLA-A*02, the Peptide exchange entry is recorded as “++++ (> = 75% = ++++)”.

“293 (FLVDGSWSI; listed as Homo sapiens) [compound 293]”: the Wells result in the assay on CD8+ T cells is recorded as “+ (<20% = +)”.

For the substance “230 (KLQNIMMLL; listed as Homo sapiens) [compound 230]”, the “Wells positive [%]” value in the assay on CD8+ T cells is reported as “++++ (> = 70% = ++++)”.

With “207 (AYVVFVSTL; listed as Homo sapiens) [compound 207]”, the “Wells positive [%]” value in the assay with CD8+ T cells is on record as “+ (<20% = +)”.

On to “16 (YTLDIPVLFGV; listed as Homo sapiens) [compound 16]”, for which the Peptide exchange entry with HLA-A*02 is on record as “++++ (> = 75% = ++++)”.

Turning to “141 (FLDKVLVAA; listed as Homo sapiens) [compound 141]”, the “Wells positive [%]” value in the assay on CD8+ T cells is reported as “+ (<20% = +)”.

As to “204 (TYELRYFQI; listed as Homo sapiens) [compound 204]”, in the assay on CD8+ T cells, the “Wells positive [%]” value is listed as “+ (<20% = +)”. In addition, the Peptide exchange result in the assay with HLA-A*24 is “++++ (> = 75% = ++++)”.

Consider “100 (ALLGMIIVGV; listed as Homo sapiens) [compound 100]”, for which the Peptide exchange result in the assay with HLA-A*02 is reported as “+ (<20% = +)”.

As to “90 (FLQDLEQRL; listed as Homo sapiens) [compound 90]”, the “Wells positive [%]” value in the assay with CD8+ T cells is reported as “+ (<20% = +)”.

Regarding “26 (ALQEELTEL; listed as Homo sapiens) [compound 26]”, the “Wells positive [%]” value with CD8+ T cells is “+ (<20% = +)”.

For the substance “291 (KLDETGNSL; listed as Homo sapiens) [compound 291]”, the Wells result with CD8+ T cells is “+ (<20% = +)”.

As for “42 (LLDSVSRL; listed as Homo sapiens) [compound 42]”, in the assay with HLA-A*02, the Peptide exchange entry is “+ (<20% = +)”.

As to “197 (EYSLFPGQVVI; listed as Homo sapiens) [compound 197]”, the “Wells positive [%]” value in the assay with CD8+ T cells is reported as “+ (<20% = +)”.

For “23 (SLFSDEFKV; listed as Homo sapiens) [compound 23]”, the “Wells positive [%]” value in the assay with CD8+ T cells is on record as “++++ (> = 70% = ++++)”.

In the case of “292 (GMMTAILGV; listed as Homo sapiens) [compound 292]”, in the assay on CD8+ T cells, the Wells entry is reported as “+ (<20% = +)”.

As for “34 (FLLATEVVTV; listed as Homo sapiens) [compound 34]”, the Peptide exchange result in the assay with HLA-A*02 is “++++ (> = 75% = ++++)”.

With “5 (GIVAHIQEV; listed as Homo sapiens) [compound 5]”, in the assay on CD8+ T cells, the “Wells positive [%]” value is reported as “+ (<20% = +)”.

For the substance “298 (RYLEGTSCI; listed as Homo sapiens) [compound 298]”, the Wells result with CD8+ T cells is on record as “+ (<20% = +)”.

Turning to “300 (AYVLRLETL; listed as Homo sapiens) [compound 300]”, the Wells result in the assay with CD8+ T cells is “+ (<20% = +)”.

Take “301 (AYKPGALTF; listed as Homo sapiens) [compound 301]”: the Wells entry in the assay on CD8+ T cells is given as “+ (<20% = +)”.

On to “159 (LYNKGFIYL; listed as Homo sapiens) [compound 159]”, for which the “Wells positive [%]” value with CD8+ T cells is on record as “++++ (> = 70% = ++++)”. For the same substance, the Peptide exchange entry in the assay with HLA-A*24 is on record as “++++ (> = 75% = ++++)”.

With “29 (YLLDPSITL; listed as Homo sapiens) [compound 29]”, in the assay with CD8+ T cells, the “Wells positive [%]” value is “+ (<20% = +)”.

With “158 (HYSQELSLLYL; listed as Homo sapiens) [compound 158]”, the “Wells positive [%]” value in the assay on CD8+ T cells is “+ (<20% = +)”. Further, in the assay on HLA-A*24, the Peptide exchange entry was “++++ (> = 75% = ++++)”.

Take “163 (DYLKGLASF; listed as Homo sapiens) [compound 163]”: the “Wells positive [%]” value with CD8+ T cells is “+ (<20% = +)”. In addition, the Peptide exchange entry with HLA-A*24 was “++++ (> = 75% = ++++)”.

Turning to “149 (ILNTHITEL; listed as Homo sapiens) [compound 149]”, the “Wells positive [%]” value with CD8+ T cells is recorded as “+ (<20% = +)”.

Turning to “167 (NYINRILKL; listed as Homo sapiens) [compound 167]”, in the assay with CD8+ T cells, the “Wells positive [%]” value is given as “+ (<20% = +)”. Further, the Peptide exchange result with HLA-A*24 is recorded as “++++ (> = 75% = ++++)”.

“268 (QYLGQIQHI; listed as Homo sapiens) [compound 268]”: in the assay on CD8+ T cells, the “Wells positive [%]” value is given as “+ (<20% = +)”.

Regarding “285 (HYPPVQVLF; listed as Homo sapiens) [compound 285]”, the “Wells positive [%]” value in the assay on CD8+ T cells was “+ (<20% = +)”.

“269 (YFIDSTNLKTHF; listed as Homo sapiens) [compound 269]”: the “Wells positive [%]” value in the assay on CD8+ T cells was “+ (<20% = +)”.

Turning to “18 (ILLDLTDNRL; listed as Homo sapiens) [compound 18]”, in the assay with CD8+ T cells, the “Wells positive [%]” value is on record as “+ (<20% = +)”.

For the substance “296 (TYVDSSHTI; listed as Homo sapiens) [compound 296]”, the Wells result in the assay on CD8+ T cells is reported as “+ (<20% = +)”.

“184 (VFQNFPLLF; listed as Homo sapiens) [compound 184]”: the Peptide exchange entry in the assay on HLA-A*24 is “++++ (> = 75% = ++++)”.

As for “289 (KYPVEWAKF; listed as Homo sapiens) [compound 289]”, the Peptide exchange entry with HLA-A*24 is reported as “++++ (> = 75% = ++++)”.

On to “165 (DYTTWTALL; listed as Homo sapiens) [compound 165]”, for which the “Wells positive [%]” value with CD8+ T cells is “+ (<20% = +)”. The Peptide exchange entry in the assay with HLA-A*24 is on record as “++++ (> = 75% = ++++)”.

For the substance “277 (VYQGHTALL; listed as Homo sapiens) [compound 277]”, the Peptide exchange entry in the assay on HLA-A*24 is “++++ (> = 75% = ++++)”.

In the case of “31 (TITETTVEV; listed as Homo sapiens) [compound 31]”, the “Wells positive [%]” value in the assay on CD8+ T cells is reported as “+ (<20% = +)”.

Take “160 (VYTLDIPVL; listed as Homo sapiens) [compound 160]”: the Peptide exchange entry in the assay on HLA-A*24 was “++++ (> = 75% = ++++)”.

With “168 (KYQDILETI; listed as Homo sapiens) [compound 168]”, the Peptide exchange entry in the assay on HLA-A*24 is “++++ (> = 75% = ++++)”.
